Measured values from ChEMBL document CHEMBL1201862, “PubChem BioAssay data set” (2004).
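Growth conditions: 96-well plates. Treatment: test compound, 48 hours, 5 concentrations. Analysis: linear interpolation between bracketing concentrations; unreached endpoints set to highest concentration. Here, GI50 denotes the concentration required for 50% inhibition of growth.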 Active and inactive are the calls of the source. Cut-off read from the data, not from the text of the source: active = GI50 up to about 1.1 µM and inactive = higher.

Assays:
Test in all cases: growth of human tumour cells (NCI), 48 h
T47D = test system: T47D
DMS-114 = test system: DMS-114
RXF 631 = test system: RXF 631
LXFL 529 = test system: LXFL 529
DMS-273 = test system: DMS-273
M19-MEL = test system: M19-MEL
SNB-78 = test system: SNB-78
XF498 = test system: XF498
HOP-18 = test system: HOP-18

With Nc1ccccc1SC(C[N+](=O)[O-])c1ccc2c(c1)OCO2 (configuration not stated) the GI50 (T47D) was 4.18 µM (inactive).

O=C(Cc1ccccc1)N/N=C/c1ccccc1O was tested, and the GI50 (T47D) was 4.29 µM (inactive).

With CC1OC(OC2C(OC(=O)[C@@H]3CC(C)(C)C[C@@H]4C5=CC[C@@H]6[C@@]7(C)C[C@H](O)[C@H](OC8OC(CO)C(O)C(O)C8O)[C@@](C)(CO)C7[C@H](O)C[C@@]6(C)[C@]5(C)C[C@@H](O)[C@H]43)OCC(O)C2O)C(O)C(O)C1O (some centres not stated) the GI50 (T47D) was > 15 µM (inactive).

C=CC(=O)N1C/C(=C\c2ccc(N(C)C)cc2)C(=O)/C(=C/c2ccc(N(C)C)cc2)C1 was tested, and the GI50 (T47D) was > 100 µM (inactive).

For O=[N+]([O-])C(/C=C(\Cl)[N+](=O)[O-])=C(Nc1ccccc1)Nc1ccccc1, the GI50 (T47D) was 7.43 µM (inactive).

O=c1c(=O)c2cscc2c1=O was tested, and the GI50 (T47D) was 3.66 µM (inactive).

With CCOC(=O)/C=C/C(Br)=C(Br)/C=C/C(=O)OCC the GI50 (T47D) was 14.8 µM (inactive).

With O=C(CC(=O)Nc1ccccc1)NNC(Sc1ccccc1)c1cc(/N=N/c2ccc(Br)cc2)ccc1O (configuration not stated) the GI50 (T47D) was 3.51 µM (inactive).

With OC1(c2ccccc2)OC(C#Cc2ccccc2)(c2ccccc2)c2ccccc21 (configuration not stated) the GI50 (DMS-114) was 3.13 µM (inactive), the GI50 (RXF 631) was 3.13 µM (inactive) and the GI50 (LXFL 529) was 6.22 µM (inactive). For the same molecule, the GI50 (DMS-273) was 3.4 µM (inactive), the GI50 (M19-MEL) was 3.23 µM (inactive) and the GI50 (SNB-78) was 6.98 µM (inactive). The GI50 (XF498) was 7.26 µM (inactive).

With CC(=O)c1c(C)n(C)c2c1nnc1ccccc12 the GI50 (T47D) was > 100 µM (inactive).

For CC(C)Oc1cccc(N2C(CCc3c[nH]c4ccc(Br)cc34)=NS(=O)(=O)c3cnccc32)c1, the GI50 (T47D) was 21.2 µM (inactive).

In the case of CCOC(=O)c1c2cccccc2n2c(=O)cc(C)nc12, the GI50 (LXFL 529) is reported as > 100 µM (inactive), the GI50 (DMS-273) is reported as > 100 µM (inactive) and the GI50 (SNB-78) is reported as > 100 µM (inactive).

With CCCC(=O)OC(OC(=O)CCC)c1ccc([N+](=O)[O-])o1 the GI50 (T47D) was 21.4 µM (inactive).

In the case of CN(/N=C(\C(=O)O)c1ccccc1)C1=NCCN1, the GI50 (T47D) is reported as > 100 µM (inactive).

For CCOC(=O)C1=C(C)NC(C)=C(C(=O)OCCNC(=O)c2ccc(N=[N+]=[N-])cc2)C1c1ccccc1C(F)(F)F (configuration not stated) [AZIDOPINE], the GI50 (T47D) was 8.93 µM (inactive).

With CCCCCCCCCc1cc(=O)c2ccc(OCc3ccccc3)cc2o1 the GI50 (DMS-114) was 92.9 µM (inactive), the GI50 (LXFL 529) was 73.8 µM (inactive) and the GI50 (DMS-273) was > 100 µM (inactive). For the same molecule, the GI50 (M19-MEL) was 69.7 µM (inactive), the GI50 (HOP-18) was > 100 µM (inactive) and the GI50 (SNB-78) was > 100 µM (inactive). For the same molecule, the GI50 (XF498) was > 100 µM (inactive).

With COc1cccc2c1C(=O)c1c(O)c3c(c(O)c1C2=O)C[C@@](O)(C(=O)CO)CC3OC1CC(N(C)CCOCC(OC(C)=O)OC(C)=O)C(O)C(C)O1 (some centres not stated) the GI50 (DMS-114) was > 0.01 µM (active), the GI50 (LXFL 529) was > 0.01 µM (active) and the GI50 (M19-MEL) was > 0.01 µM (active). For the same molecule, the GI50 (HOP-18) was > 0.01 µM (active) and the GI50 (XF498) was > 0.01 µM (active).

In the case of O=c1oc2ccc([N+](=O)[O-])cc2c(Nc2ccc3c(c2)Sc2ccccc2O3)c1[N+](=O)[O-], the GI50 (T47D) is reported as 40.7 µM (inactive).

With CC(C)(C)c1cc(CCC(=O)Nc2ccc(Cl)cc2Cl)nc(N)n1 the GI50 (DMS-114) was > 100 µM (inactive), the GI50 (RXF 631) was > 100 µM (inactive) and the GI50 (LXFL 529) was > 100 µM (inactive). The GI50 (M19-MEL) was > 100 µM (inactive), the GI50 (HOP-18) was > 100 µM (inactive) and the GI50 (SNB-78) was > 100 µM (inactive).

C/C=C(/CBr)CCC(Br)C(C)(C)Cl.C/C=C(\CBr)CCC(Br)C(C)(C)Cl (configuration not stated) was tested, and the GI50 (T47D) was > 10 µM (inactive).

In the case of CCOC(=O)C(NC(=O)CC(C)C)(N1CCN(c2cc3c(cc2F)c(=O)c(C(=O)O)cn3C2CC2)CC1)C(F)(F)F (configuration not stated), the GI50 (T47D) is reported as 22.9 µM (inactive).

In the case of CC1(C)S[C@@H]2[C@H](NC(=O)/C=C/c3ccccc3)C(=O)N2[C@H]1C(=O)O, the GI50 (T47D) is reported as > 100 µM (inactive).

In the case of CC(=O)NNc1nc(C)c(C(=O)/C=C/c2ccccc2Cl)s1, the GI50 (DMS-114) is reported as > 100 µM (inactive), the GI50 (RXF 631) is reported as > 100 µM (inactive) and the GI50 (DMS-273) is reported as > 100 µM (inactive). The GI50 (M19-MEL) was > 100 µM (inactive), the GI50 (HOP-18) was > 100 µM (inactive) and the GI50 (SNB-78) was > 100 µM (inactive).

C=CCc1ccccc1C1CC2(C(=O)OC)OC1C(C(=O)OC)=C2C(=O)OC (configuration not stated) was tested, and the GI50 (T47D) was > 10 µM (inactive).

With C=CCC(C(=O)O)c1ccccc1 (configuration not stated) the GI50 (T47D) was > 100 µM (inactive).

In the case of C=C1CCC2C(C)(CO)C(O)CCC2(C)C1C/C=C1\C(=O)OCC1O (configuration not stated), the GI50 (T47D) is reported as 24.7 µM (inactive).

COc1cc(C2c3cc4c(cc3[C@@H](N(C)C)[C@H]3COC(=O)C23)OCO4)cc(OC)c1O (some centres not stated) was tested, and the GI50 (RXF 631) was 42.2 µM (inactive), the GI50 (LXFL 529) was 35.2 µM (inactive) and the GI50 (DMS-273) was 32.5 µM (inactive). For the same molecule, the GI50 (XF498) was 45 µM (inactive).

For N#Cc1nc(/C=C/c2nc(C#N)c(N)o2)oc1N, the GI50 (T47D) was > 10 µM (inactive).

With COc1ccc(C[n+]2cccc(O)c2)cc1 the GI50 (T47D) was > 100 µM (inactive).

CNC(=O)c1nn[nH]c1O was tested, and the GI50 (T47D) was > 100 µM (inactive).

For N=C(N)SCCCN, the GI50 (T47D) was 32.2 µM (inactive).

With CSc1ccc(C(=O)C(=O)c2ccc(SC)s2)s1 the GI50 (T47D) was > 10 µM (inactive).

With CC1CCC23COC(=O)C2C(O)CCC3C1(C)CC(O)c1ccoc1 (configuration not stated) the GI50 (DMS-114) was > 100 µM (inactive), the GI50 (LXFL 529) was > 100 µM (inactive) and the GI50 (M19-MEL) was > 100 µM (inactive). The GI50 (HOP-18) was > 100 µM (inactive), the GI50 (SNB-78) was > 100 µM (inactive) and the GI50 (XF498) was > 100 µM (inactive).

O=C(O)C1=C(C(=O)Nc2ccccc2)C2C=CC1C2 (configuration not stated) was tested, and the GI50 (DMS-114) was > 100 µM (inactive), the GI50 (LXFL 529) was > 100 µM (inactive) and the GI50 (DMS-273) was > 100 µM (inactive). The GI50 (M19-MEL) was > 100 µM (inactive), the GI50 (HOP-18) was > 100 µM (inactive) and the GI50 (SNB-78) was > 100 µM (inactive). For the same molecule, the GI50 (XF498) was > 100 µM (inactive).

With O=C(CC(=O)c1ccccc1)C(=O)Nc1ccc(Cl)cc1 the GI50 (DMS-114) was > 40.4 µM (inactive), the GI50 (LXFL 529) was > 100 µM (inactive) and the GI50 (DMS-273) was > 56.5 µM (inactive). The GI50 (HOP-18) was > 100 µM (inactive), the GI50 (SNB-78) was > 100 µM (inactive) and the GI50 (XF498) was > 100 µM (inactive).
